Assays:
Type in all cases: in vivo
Set-up in all cases: scale not given here
[1] = tested on: Echinochloa crus-galli (L.) P. Beauv. var. crus-galli; assay: Herbicidal effects in upland field foliar treatment (Test Example 3); conditions: criteria of Table 138; for herbicidal effect (index) on Echinochloa crus-galli (L.) P. Beauv. var. crus-galli: 1000 g active ingredient per hectare, 14th day after treatment; for herbicidal effects on Echinochloa crus-galli (L.) P. Beauv. var. crus-galli: 1000 g of the active ingredient per hectare, 14th day after the treatment, wettable powder
Method in brief: (§1)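 Plants grown two weeks from seed in upland soil in a greenhouse, then sprayed overall with water-diluted wettable powder at 1000 L/ha delivering 1000 g active ingredient/ha. Herbicidal effect scored by rating criteria 14 days after treatment.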

[2] = tested on: Abutilon theophrasti medicus; assay: as above; conditions: criteria of Table 138; for herbicidal effect (index) on Abutilon theophrasti medicus: 1000 g active ingredient per hectare, 14th day after treatment; for herbicidal effects on Abutilon theophrasti medicus: 1000 g of the active ingredient per hectare, 14th day after the treatment, wettable powder
Method in brief: as §1

[3] = tested on: Amaranthus viridis L.; assay: as above; conditions: criteria of Table 138; for herbicidal effect (index) on Amaranthus viridis L.: 1000 g active ingredient per hectare, 14th day after treatment; for herbicidal effects on Amaranthus viridis L.: 1000 g of the active ingredient per hectare, 14th day after the treatment, wettable powder
Method in brief: as §1

[4] = tested on: Echinochloa oryzicola Vasing; assay: Herbicidal effects in paddy field soil treatment (Test Example 1); conditions: for Herbicidal effects index, Echinochloa oryzicola Vasing: paddy field soil treatment, 1000 g of the active ingredient per hectare, wettable powder added dropwise on water surface, 21st day after treatment
Method in brief: (§2)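 Seeds sown in puddled paddy soil, waterlogged to 3 cm depth; next day a diluted wettable powder applied dropwise to the water surface at 1000 g active ingredient per hectare. Herbicidal effect scored 21 days after treatment in a greenhouse.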

[5] = tested on: Monochoria vaginalis (Burm. f.) Presl var. plantaginea (Roxb.) Solms-Laub.; assay: as above; conditions: for Herbicidal effects index, Monochoria vaginalis (Burm. f.) Presl var. plantaginea (Roxb.) Solms-Laub.: paddy field soil treatment, 1000 g of the active ingredient per hectare, wettable powder added dropwise on water surface, 21st day after treatment
Method in brief: as §2

[6] = tested on: Scirpus juncoides Roxb. var. ohwianus. T. Koyama; assay: as above; conditions: for Herbicidal effects index, Scirpus juncoides Roxb. var. ohwianus. T. Koyama: paddy field soil treatment, 1000 g of the active ingredient per hectare, wettable powder added dropwise on water surface, 21st day after treatment
Method in brief: as §2

[7] = tested on: Abutilon theophrasti medicus; assay: Herbicidal effects in upland field soil treatment (Test Example 2); conditions: 1000 g active ingredient per hectare, 21st day after treatment, criteria of Table 138
Method in brief: (§3)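 Pre-emergence test: seeds sown in upland soil, then soil surface sprayed with diluted wettable powder at 1000 g active ingredient per hectare (1000 liters per hectare). Greenhouse growth; herbicidal effect scored on day 21 against set criteria.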

[8] = tested on: Amaranthus viridis L.; assay: as above; conditions: 1000 g active ingredient per hectare, 21st day after treatment, criteria of Table 138
Method in brief: as §3

[9] = paddy field soil treatment (Test Example 1), criteria of Table 138

O=C1CCCC(O)=C1C(=O)c1nc2ccccc2n(-c2nncs2)c1=O [I-269]
herbicidal effect (index) on Echinochloa crus-galli (L.) P. Beauv. var. crus-galli [1]: 5
herbicidal effect (index) on Abutilon theophrasti medicus [2]: 5
herbicidal effect (index) on Amaranthus viridis L. [3]: 5
Herbicidal effects index, Echinochloa oryzicola Vasing [4]: 5
Herbicidal effects index, Monochoria vaginalis (Burm. f.) Presl var. plantaginea (Roxb.) Solms-Laub. [5]: 5
Herbicidal effects index, Scirpus juncoides Roxb. var. ohwianus. T. Koyama [6]: 5
herbicidal effect (index) on Abutilon theophrasti medicus [7]: 5
herbicidal effect (index) on Amaranthus viridis L. [8]: 5

CCc1ccc(-n2c(=O)c(C(=O)C3=C(O)CCCC3=O)nc3ccccc32)cc1 [II-24]
herbicidal effects on Echinochloa crus-galli (L.) P. Beauv. var. crus-galli [1]: 5
herbicidal effects on Abutilon theophrasti medicus [2]: 4
herbicidal effects on Amaranthus viridis L. [3]: 5
Herbicidal effects index, Echinochloa oryzicola Vasing [4]: 5
Herbicidal effects index, Monochoria vaginalis (Burm. f.) Presl var. plantaginea (Roxb.) Solms-Laub. [5]: 5
Herbicidal effects index, Scirpus juncoides Roxb. var. ohwianus. T. Koyama [6]: 5
herbicidal effect (index) on Abutilon theophrasti medicus [7]: 5
herbicidal effect (index) on Amaranthus viridis L. [8]: 5

CC1=NOC(Cn2c(=O)c(C(=O)C3=C(O)CCCC3=O)nc3ccccc32)C1 (stereo not shown) [I-212]
herbicidal effect (index) on Echinochloa crus-galli (L.) P. Beauv. var. crus-galli [1]: 5
herbicidal effect (index) on Abutilon theophrasti medicus [2]: 4
herbicidal effect (index) on Amaranthus viridis L. [3]: 5
Herbicidal effects index, Echinochloa oryzicola Vasing [4]: 5
Herbicidal effects index, Monochoria vaginalis (Burm. f.) Presl var. plantaginea (Roxb.) Solms-Laub. [5]: 5
Herbicidal effects index, Scirpus juncoides Roxb. var. ohwianus. T. Koyama [6]: 5
herbicidal effect (index) on Abutilon theophrasti medicus [7]: 5
herbicidal effect (index) on Amaranthus viridis L. [8]: 5

O=C1CCCC(O)=C1C(=O)c1nc2ccccc2n(-c2ccccc2F)c1=O [II-6]
herbicidal effect (index) on Echinochloa crus-galli (L.) P. Beauv. var. crus-galli [1]: 5
herbicidal effect (index) on Abutilon theophrasti medicus [2]: 5
herbicidal effect (index) on Amaranthus viridis L. [3]: 5
Herbicidal effects index, Echinochloa oryzicola Vasing [4]: 5
Herbicidal effects index, Monochoria vaginalis (Burm. f.) Presl var. plantaginea (Roxb.) Solms-Laub. [5]: 5
Herbicidal effects index, Scirpus juncoides Roxb. var. ohwianus. T. Koyama [6]: 5
herbicidal effect (index) on Abutilon theophrasti medicus [7]: 5
herbicidal effect (index) on Amaranthus viridis L. [8]: 5

CC1(C)CCC(=O)C(C(=O)c2nc3cccnc3n(-c3cccc(C(F)(F)F)c3)c2=O)=C1O [IV-40]
herbicidal effects on Echinochloa crus-galli (L.) P. Beauv. var. crus-galli [1]: 5
herbicidal effects on Abutilon theophrasti medicus [2]: 5
herbicidal effects on Amaranthus viridis L. [3]: 5
Herbicidal effects index, Echinochloa oryzicola Vasing [4]: 5
Herbicidal effects index, Monochoria vaginalis (Burm. f.) Presl var. plantaginea (Roxb.) Solms-Laub. [5]: 5
Herbicidal effects index, Scirpus juncoides Roxb. var. ohwianus. T. Koyama [6]: 5
herbicidal effect (index) on Abutilon theophrasti medicus [7]: 5
herbicidal effect (index) on Amaranthus viridis L. [8]: 5

CCn1c(=O)c(C(=O)C2=C(O)CCCC2=O)nc2cccnc21 [III-7]
herbicidal effects on Echinochloa crus-galli (L.) P. Beauv. var. crus-galli [1]: 4
herbicidal effects on Abutilon theophrasti medicus [2]: 5
herbicidal effects on Amaranthus viridis L. [3]: 5
Herbicidal effects index, Echinochloa oryzicola Vasing [4]: 5
Herbicidal effects index, Monochoria vaginalis (Burm. f.) Presl var. plantaginea (Roxb.) Solms-Laub. [5]: 5
Herbicidal effects index, Scirpus juncoides Roxb. var. ohwianus. T. Koyama [6]: 5
herbicidal effect (index) on Abutilon theophrasti medicus [7]: 5
herbicidal effect (index) on Amaranthus viridis L. [8]: 5

O=C1CCCC(O)=C1C(=O)c1nc2ccccc2n(-c2ccc3c(c2)OCO3)c1=O [I-202, 1-(benzo[d][1,3]dioxol-5-yl)-3-(2-hydroxy-6-oxo-1-cyclohexenecarbonyl)-quinoxalin-2(1H)-one]
herbicidal effect (index) on Echinochloa crus-galli (L.) P. Beauv. var. crus-galli [1]: 4
herbicidal effect (index) on Abutilon theophrasti medicus [2]: 5
herbicidal effect (index) on Amaranthus viridis L. [3]: 5
Herbicidal effects index, Echinochloa oryzicola Vasing [4]: 5
Herbicidal effects index, Monochoria vaginalis (Burm. f.) Presl var. plantaginea (Roxb.) Solms-Laub. [5]: 5
Herbicidal effects index, Scirpus juncoides Roxb. var. ohwianus. T. Koyama [6]: 5
herbicidal effect (index) on Abutilon theophrasti medicus [7]: 4
herbicidal effect (index) on Amaranthus viridis L. [8]: 5

CS(=O)(=O)c1ccc(-n2c(=O)c(C(=O)C3=C(O)CCCC3=O)nc3ccccc32)cc1 [II-125]
herbicidal effects on Echinochloa crus-galli (L.) P. Beauv. var. crus-galli [1]: 5
herbicidal effects on Abutilon theophrasti medicus [2]: 5
herbicidal effects on Amaranthus viridis L. [3]: 5
Herbicidal effects index, Echinochloa oryzicola Vasing [4]: 5
Herbicidal effects index, Monochoria vaginalis (Burm. f.) Presl var. plantaginea (Roxb.) Solms-Laub. [5]: 5
Herbicidal effects index, Scirpus juncoides Roxb. var. ohwianus. T. Koyama [6]: 5
herbicidal effect (index) on Abutilon theophrasti medicus [7]: 5
herbicidal effect (index) on Amaranthus viridis L. [8]: 5

CC1(C)CC(=O)C(C(=O)c2cnc3ccccc3n2)=C(O)C1 [comparative compound C, reference compound]
herbicidal effects on Echinochloa crus-galli (L.) P. Beauv. var. crus-galli [1]: 0
herbicidal effects on Abutilon theophrasti medicus [2]: 4
herbicidal effects on Amaranthus viridis L. [3]: 0
herbicidal effect (index) on Echinochloa oryzicola Vasing [4, 9]: 1
herbicidal effect (index) on Monochoria vaginalis (Burm. f.) Presl var. plantaginea (Roxb.) Solms-Laub. [5, 9]: 2
herbicidal effect (index) on Scirpus juncoides Roxb. var. ohwianus. T. Koyama [6, 9]: 1
herbicidal effect (index) on Abutilon theophrasti medicus [7]: 0
herbicidal effect (index) on Amaranthus viridis L. [8]: 3

COCn1c(=O)c(C(=O)C2=C(O)CCCC2=O)nc2ccccc21 [I-49]
herbicidal effect (index) on Echinochloa crus-galli (L.) P. Beauv. var. crus-galli [1]: 4
herbicidal effect (index) on Abutilon theophrasti medicus [2]: 5
herbicidal effect (index) on Amaranthus viridis L. [3]: 5
Herbicidal effects index, Echinochloa oryzicola Vasing [4]: 5
Herbicidal effects index, Monochoria vaginalis (Burm. f.) Presl var. plantaginea (Roxb.) Solms-Laub. [5]: 5
Herbicidal effects index, Scirpus juncoides Roxb. var. ohwianus. T. Koyama [6]: 5
herbicidal effect (index) on Abutilon theophrasti medicus [7]: 5
herbicidal effect (index) on Amaranthus viridis L. [8]: 5

CC1(C)CC(=O)C(C(=O)c2nc3ccccc3n(-c3ccc4c(c3)OCCO4)c2=O)=C(O)C1 [II-228]
herbicidal effects on Echinochloa crus-galli (L.) P. Beauv. var. crus-galli [1]: 5
herbicidal effects on Abutilon theophrasti medicus [2]: 5
herbicidal effects on Amaranthus viridis L. [3]: 5
Herbicidal effects index, Echinochloa oryzicola Vasing [4]: 5
Herbicidal effects index, Monochoria vaginalis (Burm. f.) Presl var. plantaginea (Roxb.) Solms-Laub. [5]: 5
Herbicidal effects index, Scirpus juncoides Roxb. var. ohwianus. T. Koyama [6]: 5
herbicidal effect (index) on Abutilon theophrasti medicus [7]: 5
herbicidal effect (index) on Amaranthus viridis L. [8]: 5

Cc1cccnc1-n1c(=O)c(C(=O)C2=C(O)CCCC2=O)nc2ccccc21 [I-272]
herbicidal effect (index) on Echinochloa crus-galli (L.) P. Beauv. var. crus-galli [1]: 5
herbicidal effect (index) on Abutilon theophrasti medicus [2]: 5
herbicidal effect (index) on Amaranthus viridis L. [3]: 5
Herbicidal effects index, Echinochloa oryzicola Vasing [4]: 5
Herbicidal effects index, Monochoria vaginalis (Burm. f.) Presl var. plantaginea (Roxb.) Solms-Laub. [5]: 5
Herbicidal effects index, Scirpus juncoides Roxb. var. ohwianus. T. Koyama [6]: 5
herbicidal effect (index) on Abutilon theophrasti medicus [7]: 5
herbicidal effect (index) on Amaranthus viridis L. [8]: 5

COc1ccc2nc(C(=O)C3=C(O)CCCC3=O)c(=O)n(-c3cc(F)c(OC)cc3F)c2c1 [II-254]
herbicidal effects on Echinochloa crus-galli (L.) P. Beauv. var. crus-galli [1]: 5
herbicidal effects on Abutilon theophrasti medicus [2]: 4
herbicidal effects on Amaranthus viridis L. [3]: 5
Herbicidal effects index, Echinochloa oryzicola Vasing [4]: 5
Herbicidal effects index, Monochoria vaginalis (Burm. f.) Presl var. plantaginea (Roxb.) Solms-Laub. [5]: 5
Herbicidal effects index, Scirpus juncoides Roxb. var. ohwianus. T. Koyama [6]: 5
herbicidal effect (index) on Abutilon theophrasti medicus [7]: 4
herbicidal effect (index) on Amaranthus viridis L. [8]: 5

O=C1CCCC(O)=C1C(=O)c1nc2ccccc2n(-c2cccc(OC(F)F)c2)c1=O [II-90]
herbicidal effects on Echinochloa crus-galli (L.) P. Beauv. var. crus-galli [1]: 5
herbicidal effects on Abutilon theophrasti medicus [2]: 5
herbicidal effects on Amaranthus viridis L. [3]: 5
Herbicidal effects index, Echinochloa oryzicola Vasing [4]: 5
Herbicidal effects index, Monochoria vaginalis (Burm. f.) Presl var. plantaginea (Roxb.) Solms-Laub. [5]: 5
Herbicidal effects index, Scirpus juncoides Roxb. var. ohwianus. T. Koyama [6]: 5
herbicidal effect (index) on Abutilon theophrasti medicus [7]: 5
herbicidal effect (index) on Amaranthus viridis L. [8]: 5

Reference: patent US8389523B2, “Substituted quinoxaline and an agrochemical composition thereof” (Kumiai Chemical Industry Co., Ltd., priority 2007, dated 2013)
